Reference: patent publication US20130266663A1, “SOX9 INHIBITORS” (priority 2010, published 2013)

Assays:
Format in all cases: cell-based, rat
[1] = tested on: SOX9; assay: SOX9 luciferase reporter assay in transfected astrocytes; conditions: for inhibition of SOX9 activity (luciferase assay): 24 h; for luciferase reporter activity (SOX9 activity) / concentration at which the decrease in luciferase reporter activity is optimized / maximal: cultured rat astrocytes; for luciferase reporter activity (SOX9 activity) / reduction of Sox9 activity as indicated by luciferase expression / concentration at which the decrease in luciferase reporter activity is optimized / maximal: 24 h treatment; for luciferase reporter activity (SOX9 activity): various concentrations (FIG. 5); for reduction of Sox9 activity as indicated by luciferase expression: concentration not stated (FIG. 5)
Description: Cultures early after plating bear characteristics of immature and reactive astroctyes associated with acute damage. In this assay, primary astrocytes are transfected with a SOX9 reporter construct that consists of 4 repeats of the SOX9 binding site coupled to the mouse Col2a1 minimal promoter cloned upstream of a luciferase gene in the plasmid pGL4, as previously described in WO 2008/049226. After normalization for transfection efficiency, SOX9 activity can be monitored in transfected astrocytes by luciferase activity. Cells transfected with the SOX9 reporter construct were cultured in the presence and absence of potential inhibitors for 24 hours at which time the cells were lysed and luciferase levels measured. Compounds that reduced the levels of luciferase activity relative to control wells were considered as positive “hits”. In a secondary screen, false positives that cause a reduction in luciferase activity due to effects on cell viability, were eliminated using a cell viability assay (CellTiter-Flour—Promega). Subsequent to secondary screening, the “hits” were evaluated for their affect on SOX9 target gene expression by Q-PCR studies in primary astrocytes.
The utility of calmodulin antagonists (inhibitor) to decrease SOX9 target gene expression was evaluated in cultured rat astrocytes transfected with pGL4.1 4×48 Col2a1 prepared as described in Example 1. This plasmid contains 4-48 bp SOX9-binding sites from the Col2A1 enhancer which promote luciferase reporter gene expression in cells where SOX9 is active i.e. in the nucleus. The day after transfection, cells were treated for 24 h with inhibitor in concentrations as described below and in FIG. 5 before the luciferase assay was performed.
In this example, the potential of compounds that modulate calcium channels to modulate SOX9 activity is tested. The compounds were evaluated in cultured rat astrocytes transfected with pGL4.1 4×48 Col2a1. The day after transfection, cells were treated for 24 h with selected inhibitors before the luciferase assay was performed.
Antagonists to TRPV4 cation channel were tested to determine their ability to decrease the activity of SOX9 in astrocytes. The effect of TRPV4 antagonists on SOX9 function was evaluated in cultured rat astrocytes transfected with pGL4.1 4×48 Col2a1. The day after transfection, cells were treated for 24 h with 2-APB (100 μM) or ruthenium red (10 μM) before the luciferase assay was performed. […] With respect to SOX9 target genes, Q-PCR analysis of aged primary astrocyte cultures was performed to determine the impact of the TRPV4 antagonists on SOX9. […] Collagen IV is a significant scarring extracellular matrix produced by astrocytes and contributing to the inhibitory properties of the glial scar.

[2] = tested on: SOX9 target genes; assay: Q-PCR of SOX9 target gene expression in aged primary astrocyte cultures; set-up: reduction of XT-1 expression / reduction of HAPLN1 expression / reduction of aggrecan expression / reduction of Col2a expression / reduction of Col4a expression: concentration or dose not given beside the values
Description: Another approach to modulating the capacity of calmodulin to transport SOX9 into the nucleus is via competitive inhibition of calmodulin binding. To that effect, a novel peptide (SOX-CAL) was generated to specifically block the calmodulin SOX9 binding site. The SOX-CAL peptide sequence, […] (SEQ ID NO.8), corresponds with the calmodulin binding sequence in SOX9. To ensure the peptide's entry into the cell, it was synthesized fused to the protein transduction domain of the HIV-1 Tat protein. […] This analysis was performed in contrast to the control FLAG-TAT peptide.
Antagonists to TRPV4 cation channel were tested to determine their ability to decrease the activity of SOX9 in astrocytes. The effect of TRPV4 antagonists on SOX9 function was evaluated in cultured rat astrocytes transfected with pGL4.1 4×48 Col2a1. The day after transfection, cells were treated for 24 h with 2-APB (100 μM) or ruthenium red (10 μM) before the luciferase assay was performed. The broad-spectrum transient receptor potential (TRP) channel antagonist 2-APB inhibited SOX9 activity by ˜70%, while the vanniloid subfamily-specific TRP antagonist ruthenium red inhibited SOX9 activity by ˜25%. With respect to SOX9 target genes, Q-PCR analysis of aged primary astrocyte cultures was performed to determine the impact of the TRPV4 antagonists on SOX9. Treatment with ruthenium red specifically reduces aggrecan and Col4a expression by 40% and 50%, respectively (FIG. 6B), while 2-APB reduces XT-1, HAPLN1, aggrecan, Col2a, and Col4a by 50%, 70%, 80%, 50%, and 60% respectively (FIG. 6B, C), in rat primary astrocytes after a 48 hour exposure (n=3). […] Based on the role that the TRP channels serve in modulating calcium levels, and therefore calmodulin activity, the effect of the TRP channel blockers on SOX9 activity appears to be indirect.

[3] = tested on: Collagen IV; assay: Western blotting of astrocyte culture protein extract probed with anti-collagen IV; conditions: Cal-TAT treated vs control cultures
[4] = rat primary astrocytes, 48 hour exposure, n=3
[5] = primary astrocyte cultures, in contrast to control FLAG-TAT peptide (FIG. 7C)

NCCOB(c1ccccc1)c1ccccc1 [2-APB]
inhibition of SOX9 activity (luciferase assay) ([1]; 100 μM): ~70% | luciferase reporter activity (SOX9 activity) [1]: significantly reduce luciferase production | reduction of Col2a expression [2, 4]: 50% | reduction of Col4a expression [2, 4]: 60% | reduction of HAPLN1 expression [2, 4]: 70% | reduction of XT-1 expression [2, 4]: 50% | reduction of aggrecan expression [2, 4]: 80%

Clc1ccc(C(c2ccc(Cl)cc2)n2cc[n+](CC(OCc3ccc(Cl)cc3Cl)c3ccc(Cl)cc3Cl)c2)cc1 (stereo not drawn) [Calmidazolium, calmidazolium]
reduction of Sox9 activity as indicated by luciferase expression [1]: approximately 20%

OCCN1CCN(CCCN2c3ccccc3Sc3ccc(C(F)(F)F)cc32)CC1 [Fluphenazine, fluphenazine]
luciferase reporter activity (SOX9 activity) [1]: dose dependent decrease in reporter activity

COc1ccc2cc1Oc1ccc(cc1)C[C@H]1c3cc(c(OC)cc3CCN1C)Oc1c(OC)c(OC)cc3c1[C@H](C2)N(C)CC3 [Tetrandine, Tetrandrine]
reduction of Sox9 activity as indicated by luciferase expression [1]: approximately 20%

NCCCCCCNS(=O)(=O)c1cccc2ccccc12 [W5]
concentration at which the decrease in luciferase reporter activity is optimized / maximal [1]: 50 µM | luciferase reporter activity (SOX9 activity) [1]: does dependent decreases in reporter activity

NCCCCCCNS(=O)(=O)c1cccc2c(Cl)cccc12 [W7]
concentration at which the decrease in luciferase reporter activity is optimized / maximal [1]: 50 µM | luciferase reporter activity (SOX9 activity) [1]: does dependent decreases in reporter activity

CC(COc1ccccc1)N(CCCl)Cc1ccccc1 (stereo not drawn) [phenoxybenzamine]
reduction of Sox9 activity as indicated by luciferase expression [1]: up to 80% | luciferase reporter activity (SOX9 activity) [1]: dose dependent inhibition of reporter activity at 20 and 50 uM

N.N.N.N.N.N.N.N.N.N.N.N.N.N.[Cl-].[Cl-].[Cl-].[Cl-].[Cl-].[Cl-].[O-2].[O-2].[Ru+3].[Ru+3].[Ru+4] [ruthenium red]
inhibition of SOX9 activity (luciferase assay) ([1]; 10 μM): ~25% | reduction of Sox9 activity as indicated by luciferase expression [1]: about 25% | luciferase reporter activity (SOX9 activity) [1]: significantly reduce luciferase production | reduction of Col4a expression [2, 4]: 50% | reduction of aggrecan expression [2, 4]: 40%

Cal-TAT: SOX-CAL peptide fused to the HIV-1 Tat transduction domain, one N-/C-terminal configuration (KRPMNAFMVWAQAARRKYGRKKRRQRRR)
level of type IV collagen (Western blot) [3]: reduced level of type IV collagen | expression of C4ST ([2]; 10 uM peptide, 48 hours): significantly reduced | expression of XT1 ([2]; 10 uM peptide, 48 hours): significantly reduced | Collagen 2A expression [2, 5]: significant reduction | GFAP expression [2, 5]: significant reduction | XT-1 expression [2, 5]: significant reduction | aggrecan expression [2, 5]: significant reduction | brevican expression [2, 5]: significant reduction

RRPMNAFMVWAQAARRK [SOX-CAL peptide]
SOX9 target genes expression ([2]; longer treatments (1 week)): even more profound reductions

TAT-Cal: SOX-CAL peptide fused to the HIV-1 Tat transduction domain, other N-/C-terminal configuration (YGRKKRRQRRRKRPMNAFMVWAQAARRK)
expression of C4ST ([2]; 10 uM peptide, 48 hours): significantly reduced | expression of Sox9 ([2]; 10 uM peptide, 48 hours): increased | expression of XT1 ([2]; 10 uM peptide, 48 hours): significantly reduced
